From US6737383B1, “Herbicidal oxadiazolidines” (priority 1999, dated 2004)

Key:
crabgrass = assay: Test B pre/postemergence crabgrass; assay type: in vivo, Digitaria sanguinalis
Outline: (§1)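 Response is a visual 0-to-10 score relative to untreated plants, where 0 means no effect and 10 means complete control, taken twelve to sixteen days after application. Treatments went onto soil at planting and onto foliage of 1- to 4-leaf plants, using a surfactant-containing non-phytotoxic solvent.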

cocklebur = assay: Test B pre/postemergence cocklebur; assay type: in vivo, Xanthium strumarium
Outline: as §1

soybean = assay: Test B pre/postemergence soybean; assay type: in vivo, Glycine max; details: for Plant response rating, Soybean: Postemergence
Outline: as §1

sugar beet = assay: Test B pre/postemergence sugar beet; assay type: in vivo, Beta vulgaris; details: for Plant response rating, Sugarbeets: Postemergence
Outline: as §1

purple nutsedge = assay: Test B pre/postemergence purple nutsedge; assay type: in vivo, Cyperus rotundus
Outline: as §1

rape = assay: Test B pre/postemergence rape; assay type: in vivo, Brassica napus
Outline: as §1

giant foxtail = assay: Test B pre/postemergence giant foxtail; assay type: in vivo, Setaria faberii
Outline: as §1

wild oat = assay: Test B pre/postemergence wild oat; assay type: in vivo, Avena fatua; details: for Plant response rating, Wild oats: Postemergence
Outline: as §1

smallflower flatsedge = assay: Test B flood test smallflower flatsedge; assay type: in vivo, Cyperus difformis
Outline: (§2)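 Each value is a visual injury score relative to controls, with 10 meaning complete control and 0 no effect. Evaluation took place twelve to sixteen days after the 2-leaf-stage plants were treated and kept in the greenhouse.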

velvetleaf = assay: Test B pre/postemergence velvetleaf; assay type: in vivo, Abutilon theophrasti; details: for Plant response rating, Velvetleaf: Postemergence
Outline: as §1

surinam grass = assay: Test B pre/postemergence surinam grass; assay type: in vivo, Brachiaria decumbens
Outline: as §1

pigweed = assay: Test B pre/postemergence pigweed; assay type: in vivo, Amaranthus retroflexus; details: for Plant response rating, Redroot pigweed: Postemergence
Outline: as §1

morningglory = assay: Test B pre/postemergence morningglory; assay type: in vivo, Ipomoea hederacea
Outline: as §1

blackgrass = assay: Test B pre/postemergence blackgrass; assay type: in vivo, Alopecurus myosuroides
Outline: as §1

bamyardgrass = assay: Test B flood test barnyardgrass; assay type: in vivo, Echinochloa crus-galli
Outline: as §2

corn = assay: Test B pre/postemergence corn; assay type: in vivo, Zea mays
Outline: as §1

[1] = Postemergence, Rate 62 g/ha, scale of 0 to 10, 0 is no effect, 10 is complete control
[2] = Postemergence, Rate 125 g/ha, scale 0 to 10, 0 is no effect, 10 is complete control
[3] = Postemergence, Rate 500 g/ha, scale of 0 to 10 where 0 is no effect and 10 is complete control
[4] = Preemergence, Rate 62 g/ha, scale 0 to 10 (0 no effect, 10 complete control)
[5] = Preemergence, Rate 125 g/ha, scale 0 to 10, 0 is no effect, 10 is complete control
[6] = Preemergence, Rate 500 g/ha, scale of 0 to 10 where 0 is no effect and 10 is complete control
[7] = Rate 250 g/ha, Postemergence, scale of 0 to 10 where 0 is no effect and 10 is complete control
[8] = Rate 500 g/ha, scale of 0 to 10 where 0 is no effect and 10 is complete control
[9] = Rate 250 g/ha, scale of 0 to 10 where 0 is no effect and 10 is complete control
[10] = Rate 62 g/ha, flood test species, Pre-emergence, visual evaluation after twelve to sixteen days
[11] = Rate 125 g/ha, under heading Pre-emergence, flood test species, visual evaluation after twelve to sixteen days
[12] = Rate 250 g/ha, Pre-emergence (flood test species), scale 0 to 10, 0 is no effect, 10 is complete control
[13] = Rate 500 g/ha, Pre-emergence section of Table B, 0 to 10 scale (0 no effect, 10 complete control)

CC(C)N(C(=O)n1oc(=O)n(C(C)C(=O)c2ccccc2)c1=O)c1ccccc1 (stereo not shown) [Compound 570]
Crabgrass plant response rating (crabgrass; [1]): 0 | Crabgrass plant response rating (crabgrass; [2]): 0 | Plant response rating, Crabgrass (crabgrass; [3]): 0 | Crabgrass plant response rating (crabgrass; [4]): 9 | Crabgrass plant response rating (crabgrass; [5]): 9 | Crabgrass plant response rating (0 to 10 scale) (crabgrass; Preemergence, Rate 250 g/ha): 9 | Crabgrass plant response rating (crabgrass; [6]): 10 | Plant response rating, Crabgrass (crabgrass; [7]): 0 | Cocklebur plant response rating (cocklebur; [1]): 0 | Cocklebur plant response rating (cocklebur; [2]): 0 | Plant response rating, Cocklebur (cocklebur; [3]): 0 | Cocklebur plant response rating (cocklebur; [4]): 0 | Cocklebur plant response rating (cocklebur; [5]): 0 | Cocklebur plant response rating (0 to 10 scale) (cocklebur; Preemergence, Rate 250 g/ha): 0 | Cocklebur plant response rating (cocklebur; [6]): 0 | Plant response rating, Cocklebur (cocklebur; [7]): 0 | Plant response rating, Soybean (soybean; [8]): 3 | Soybean plant response rating (soybean; [4]): 0 | Soybean plant response rating (soybean; [5]): 0 | Soybean plant response rating (0 to 10 scale) (soybean; Preemergence, Rate 250 g/ha): 0 | Soybean plant response rating (soybean; [6]): 0 | Plant response rating, Soybean (soybean; [9]): 3 | Plant response rating, Sugarbeets (sugar beet; [8]): 0 | Sugarbeets plant response rating (sugar beet; [4]): 0 | Sugarbeets plant response rating (sugar beet; [5]): 0 | Sugarbeets plant response rating (0 to 10 scale) (sugar beet; Preemergence, Rate 250 g/ha): 0 | Sugarbeets plant response rating (sugar beet; [6]): 2 | Plant response rating, Sugarbeets (sugar beet; [9]): 0 | Nutsedge plant response rating (purple nutsedge; [1]): 0 | Nutsedge plant response rating (purple nutsedge; [2]): 0 | Plant response rating, Nutsedge (purple nutsedge; [3]): 0 | Nutsedge plant response rating (purple nutsedge; [4]): 0 | Nutsedge plant response rating (purple nutsedge; [5]): 0 | Nutsedge plant response rating (purple nutsedge; [6]): 0 | Plant response rating, Nutsedge (purple nutsedge; [7]): 0 | Rape plant response rating (rape; [1]): 0 | Rape plant response rating (rape; [2]): 0 | Plant response rating, Rape (rape; [3]): 0 | Rape plant response rating (rape; [4]): 0 | Rape plant response rating (rape; [5]): 0 | Rape plant response rating (0 to 10 scale) (rape; Preemergence, Rate 250 g/ha): 0 | Rape plant response rating (rape; [6]): 0 | Plant response rating, Rape (rape; [7]): 0 | Giant foxtail plant response rating (giant foxtail; [1]): 0 | Giant foxtail plant response rating (giant foxtail; [2]): 0 | Plant response rating, Giant foxtail (giant foxtail; [3]): 0 | Giant foxtail plant response rating (giant foxtail; [4]): 0 | Giant foxtail plant response rating (giant foxtail; [5]): 0 | Giant foxtail plant response rating (0 to 10 scale) (giant foxtail; Preemergence, Rate 250 g/ha): 9 | Giant foxtail plant response rating (giant foxtail; [6]): 9 | Plant response rating, Giant foxtail (giant foxtail; [7]): 0 | Plant response rating, Wild oats (wild oat; [8]): 0 | Wild oats plant response rating (wild oat; [4]): 0 | Wild oats plant response rating (wild oat; [5]): 0 | Wild oats plant response rating (0 to 10 scale) (wild oat; Preemergence, Rate 250 g/ha): 0 | Wild oats plant response rating (wild oat; [6]): 0 | Plant response rating, Wild oats (wild oat; [9]): 0 | Plant response rating, S. Flatsedge (0 to 10 scale, 0 is no effect, 10 is complete control) (smallflower flatsedge; [10]): 0 | S. Flatsedge plant response rating (0 to 10 scale, 0 is no effect, 10 is complete control) (smallflower flatsedge; [11]): 0 | S. Flatsedge plant response rating (smallflower flatsedge; [12]): 0 | S. Flatsedge plant response rating (smallflower flatsedge; [13]): 0 | Plant response rating, Velvetleaf (velvetleaf; [8]): 0 | Velvetleaf plant response rating (velvetleaf; [4]): 0 | Velvetleaf plant response rating (velvetleaf; [5]): 0 | Velvetleaf plant response rating (0 to 10 scale) (velvetleaf; Preemergence, Rate 250 g/ha): 0 | Velvetleaf plant response rating (velvetleaf; [6]): 0 | Plant response rating, Velvetleaf (velvetleaf; [9]): 0 | B. signalgrass plant response rating (surinam grass; [1]): 0 | B. signalgrass plant response rating (surinam grass; [2]): 0 | Plant response rating, B. signalgrass (surinam grass; [3]): 0 | B. signalgrass plant response rating (surinam grass; [4]): 0 | B. signalgrass plant response rating (surinam grass; [5]): 0 | B. signalgrass plant response rating (0 to 10 scale, 0 is no effect, 10 is complete control) (surinam grass; Preemergence, Rate 250 g/ha): 0 | B. signalgrass plant response rating (surinam grass; [6]): 0 | Plant response rating, B. signalgrass (surinam grass; [7]): 0 | Plant response rating, Redroot pigweed (pigweed; [8]): 0 | Redroot pigweed plant response rating (pigweed; [4]): 0 | Redroot pigweed plant response rating (pigweed; [5]): 0 | Redroot pigweed plant response rating (0 to 10 scale) (pigweed; Preemergence, Rate 250 g/ha): 0 | Redroot pigweed plant response rating (pigweed; [6]): 8 | Plant response rating, Redroot pigweed (pigweed; [9]): 0 | Morningglory plant response rating (morningglory; [1]): 4 | Morningglory plant response rating (morningglory; [2]): 10 | Plant response rating, Morningglory (morningglory; [3]): 10 | Morningglory plant response rating (morningglory; [4]): 0 | Morningglory plant response rating (morningglory; [5]): 0 | Morningglory plant response rating (0 to 10 scale) (morningglory; Preemergence, Rate 250 g/ha): 0 | Morningglory plant response rating (morningglory; [6]): 0 | Plant response rating, Morningglory (morningglory; [7]): 10 | Blackgrass plant response rating (blackgrass; [1]): 0 | Blackgrass plant response rating (blackgrass; [2]): 0 | Plant response rating, Blackgrass (blackgrass; [3]): 0 | Blackgrass plant response rating (blackgrass; [4]): 0 | Blackgrass plant response rating (blackgrass; [5]): 0 | Blackgrass plant response rating (0 to 10 scale) (blackgrass; Preemergence, Rate 250 g/ha): 0 | Blackgrass plant response rating (blackgrass; [6]): 0 | Plant response rating, Blackgrass (blackgrass; [7]): 0 | Plant response rating, Barnyardgrass (0 to 10 scale, 0 is no effect, 10 is complete control) (bamyardgrass; [10]): 0 | Barnyardgrass plant response rating (0 to 10 scale, 0 is no effect, 10 is complete control) (bamyardgrass; [11]): 0 | Barnyardgrass plant response rating (bamyardgrass; [12]): 0 | Barnyardgrass plant response rating (bamyardgrass; [13]): 0 | Corn plant response rating (corn; [1]): 0 | Corn plant response rating (corn; [2]): 0 | Plant response rating, Corn (corn; [3]): 0 | Corn plant response rating (corn; [4]): 0 | Corn plant response rating (corn; [5]): 0 | Corn plant response rating (0 to 10 scale) (corn; Preemergence, Rate 250 g/ha): 0 | Corn plant response rating (corn; [6]): 0 | Plant response rating, Corn (corn; [7]): 0
